In assay [1] the test system is SW480. The assay can be described thus: Antiproliferative activity against human SW480 cells assessed as reduction in cell viability at 1 to 100 uM incubated for 24 to 72 hrs by MTT assay. It counts as functional, cell-based. The note with it: dose 1-100 µM, time 24-72 hrs. (In general: Tetrazolium dyes change colour on reduction, which living cells bring about.)
Assay [2] deals with HCT-116. The assay can be described thus: Antiproliferative activity against human HCT116 cells assessed as reduction in cell viability at 1 to 100 uM incubated for 24 to 72 hrs by MTT assay. As to conditions: dose 1-100 µM, time 24-72 hrs. Type of assay: functional, cell-based.
The test system of assay [3] is SW480. The assay can be described thus: cells. The note with it: Homo sapiens.
The test system of assay [4] is HCT-116. The assay can be described thus: cells. The note with it: Homo sapiens.
Assay [5] concerns SW480. The assay can be described thus: Antiproliferative activity against human SW480 cells assessed as reduction in cell viability at 1 to 100 uM by MTT assay. It counts as functional, cell-based. The note with it: dose 1-100 µM, time 24-72 hrs, TDE = time-dependent effect.
The subject of assay [6] is SW480. The assay can be described thus: Induction of apoptosis in human SW480 cells assessed as decrease in number of cells at 5 to 50 uM after 24 hrs by AO/EB staining based fluorescence inverted microscopic method. Type of assay: functional, cell-based. As to conditions: dose 5-50 µM.
Assay [7] concerns SW480. The assay can be described thus: Induction of apoptosis in human SW480 cells assessed as change in cell shape at 5 to 50 uM after 24 hrs by AO/EB staining based fluorescence inverted microscopic method. It counts as functional. As to conditions: dose 5-50 µM.
The subject of assay [8] is SW480. In words: Induction of apoptosis in human SW480 cells assessed as increase in number of cells with red dye at 5 to 50 uM after 24 hrs by AO/EB staining based fluorescence inverted microscopic method. It counts as functional, cell-based. The note with it: dose 5-50 µM.
Assay [9] has as its system SW480. In words: Induction of apoptosis in human SW480 cells assessed as early apoptotic cells at 5 uM incubated for 24 hrs by Annexin V-FITC/propidium iodide staining based flow cytometry analysis (reference value: 0.52%). Type of assay: functional. Background: In flow cytometry, cells or beads pass a laser one at a time.
Assay [10] relates to SW480. In words: Induction of apoptosis in human SW480 cells assessed as late apoptotic cells at 5 uM incubated for 24 hrs by Annexin V-FITC/propidium iodide staining based flow cytometry analysis (reference value: 2.58%). Type of assay: functional.
Assay [11] concerns SW480. In words: Induction of apoptosis in human SW480 cells assessed as early apoptotic cells at 10 uM incubated for 24 hrs by Annexin V-FITC/propidium iodide staining based flow cytometry analysis (reference value: 0.52%). It counts as functional.
For assay [12], the system named is SW480. In words: Induction of apoptosis in human SW480 cells assessed as late apoptotic cells at 10 uM incubated for 24 hrs by Annexin V-FITC/propidium iodide staining based flow cytometry analysis (reference value: 2.58%). Type of assay: functional.
Assay [13] deals with SW480. In words: Induction of apoptosis in human SW480 cells assessed as early apoptotic cells at 25 uM incubated for 24 hrs by Annexin V-FITC/propidium iodide staining based flow cytometry analysis (reference value: 0.52%). It counts as functional.
In assay [14] the test system is SW480. In words: Induction of apoptosis in human SW480 cells assessed as late apoptotic cells at 25 uM incubated for 24 hrs by Annexin V-FITC/propidium iodide staining based flow cytometry analysis (reference value: 2.58%). Type of assay: functional.
The test system of assay [15] is SW480. The assay can be described thus: Induction of apoptosis in human SW480 cells assessed as early apoptotic cells at 50 uM incubated for 24 hrs by Annexin V-FITC/propidium iodide staining based flow cytometry analysis (reference value: 0.52%). Type of assay: functional.
For assay [16], the system named is SW480. The assay can be described thus: Induction of apoptosis in human SW480 cells assessed as late apoptotic cells at 50 uM incubated for 24 hrs by Annexin V-FITC/propidium iodide staining based flow cytometry analysis (reference value: 2.58%). Type of assay: functional.
The subject of assay [17] is SW480. The assay can be described thus: Down regulation of PRL-3 expression in human SW480 cells by Western blot analysis. Type of assay: functional, cell-based. As to conditions: dose 5-50 µM. (In general: In western blotting, separated proteins are transferred to a membrane and probed.)
Assay [18] has as its system SW480. In words: Effect on TCPTP expression in human SW480 cells at 5 to 50 uM by Western blot analysis. Type of assay: functional, cell-based. As to conditions: dose 5-50 µM.
Assay [19] relates to SW480. The assay can be described thus: Effect on PTP1B expression in human SW480 cells at 5 to 50 uM by Western blot analysis. It counts as functional, cell-based. The note with it: dose 5-50 µM.
Assay [20] relates to SW480. In words: Effect on SHP-1 expression in human SW480 cells at 5 to 50 uM by Western blot analysis. It counts as functional, cell-based. As to conditions: dose 5-50 µM.
Assay [21] has as its system SW480. In words: Effect on SHP-2 expression in human SW480 cells at 5 to 50 uM by Western blot analysis. It counts as functional, cell-based. The note with it: dose 5-50 µM.
The test system of assay [22] is SW480. The assay can be described thus: Antiproliferative activity against human SW480 cells assessed as reduction in cell viability incubated for 24 to 72 hrs by MTT assay. As to conditions: dose 1-100 µM, time 24-72 hrs.
Assay [23] concerns the target T1, Protein tyrosine phosphatase type IVA 3 (Homo sapiens, UniProt O75365). The assay can be described thus: Inhibition of PRL-3 (unknown origin) using DiFMUP as substrate incubated for 1 hr.
The target in assay [24] is T1, Protein tyrosine phosphatase type IVA 3. The assay can be described thus: Inhibition of human brain PRL-3 (1 to 168 residues) expressed in Escherichia coli BL21(DE3) cells using DiFMUP as substrate incubated for 1 hr by fluorimetric assay.

Activity calls are given as the source filed them. No cut-off for these calls is given here. A value given as a limit tells only on which side of the number the result lay.

One may read the IC50 as the midpoint of a concentration-inhibition curve. A higher IC50 goes with weaker potency.

T1 sequence (O75365 whole entry, the tested form may be a part): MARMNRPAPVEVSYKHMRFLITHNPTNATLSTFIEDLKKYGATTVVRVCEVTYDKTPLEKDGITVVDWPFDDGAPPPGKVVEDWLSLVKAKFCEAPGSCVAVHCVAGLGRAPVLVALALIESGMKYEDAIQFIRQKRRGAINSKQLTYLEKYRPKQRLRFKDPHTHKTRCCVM

In the case of `Cn1ccnc1/C=C1\SC(=S)NC1=O`, the result in the assay on SW480 [1] and in the assay with HCT-116 [2] was inactive. Further, the IC50 was 78.7 µM in the assay with SW480 [3] and greater than 100 µM in the assay with HCT-116 [4].
With `O=C1NC(=S)S/C1=C\c1cc(Cl)ccc1C(F)(F)F`, the Activity result is “Tde” with SW480 [5]; 0.92% in the assay on SW480 [9]; 4.13% in the assay on SW480 [10]; 1.47% with SW480 [11]; 5.91% with SW480 [12]; 2.9% in the assay on SW480 [13]. The Activity in the assay on SW480 [14] was 6.23%; with SW480 [15] it was 4.77%; in the assay with SW480 [16], 11.72%; in the assay on SW480 [17] it was “Dose-Dependent Effect”; in the assay with SW480 [22] it was “Dose-Dependent Effect”. Moreover, the result with SW480 [6], with SW480 [7] and in the assay with SW480 [8] was Active. Besides, the outcome with SW480 [18], with SW480 [19], in the assay with SW480 [20] and in the assay with SW480 [21] was inactive. Moreover, the IC50 with SW480 [3] came out at 6.64 µM; in the assay with HCT-116 [4] it was 74.8 µM.
As for `O=C1NC(=S)S/C1=C\c1cc(Cl)ccc1Cl`, the IC50 in assay [23] was found to be 26 µM; in the assay with SW480 [3] it was 66.7 µM; in the assay with HCT-116 [4], 16.9 µM. For the same molecule, the outcome with SW480 [1] and with HCT-116 [2] was inactive.
As to `O=C1NC(=S)S/C1=C\c1ccc(O)c(C(=O)O)c1`, the outcome in the assay on SW480 [1] and in the assay on HCT-116 [2] was inactive. Further, the values for the IC50 in the assay on SW480 [3] and in the assay with HCT-116 [4] were greater than 100 µM and 100 µM, respectively.
In assay [24], `COc1cc(O)c2c(=O)cc(-c3ccc(OC)c(-c4c(O)cc(O)c5c(=O)cc(-c6ccc(O)cc6)oc45)c3)oc2c1` [GINKGETIN] yielded an IC50 of 25.8 µM.
On to `N#Cc1cc(/C=C2\SC(=S)NC2=O)ccc1F`, for which the result in the assay with SW480 [1] and in the assay with HCT-116 [2] was inactive. Further, the IC50 with SW480 [3] was 31.4 µM; in the assay with HCT-116 [4], greater than 100 µM.
On to `O=C1NC(=S)S/C1=C\c1c(F)cc(F)cc1F`, for which the result with SW480 [1] and in the assay on HCT-116 [2] was inactive. Further, the IC50 with SW480 [3] is 86.1 µM; in the assay with HCT-116 [4], 16.9 µM.
In [24], `COc1ccc(-c2cc(=O)c3c(O)cc(O)c(-c4cc(-c5cc(=O)c6c(O)cc(OC)cc6o5)ccc4OC)c3o2)cc1` [SCIADOPITISIN] gave an IC50 of 46.2 µM.
